Test system: GBM43 cells
Test: Subcutaneous GBM43 xenograft model
Type: in vivo, NSG mice
Protocol: Subcutaneous GBM xenografts were established by inoculating NSG mice with 3×10^6 GBM43 cells in the right flank. Ten days later, when tumors reached a volume of about 80 mm^3, mice were randomly assigned to 5 groups (n=4/group) and treated according to one of the following protocols: (1) PBS only; (2) intravenous (IV) injection of 5×10^6 pNK cells alone; (3) intravenous (IV) injection of 5×10^6 CD73.mCAR-pNK cells alone (Construct 1); (4) intraperitoneal (IP) injection of CQ (50 mg/kg) alone. NK cells were administered once a week for three weeks. The mice receiving adoptive NK cells therapy (groups 2 and 3) also received IL-15 (0.5 μg/mice) by IP injection every 3-4 days. Tumor growth was followed by caliper measurements and tumor volumes were calculated using the formula: V=0.52×L×W×H as described above. Body weights of the mice were recorded throughout the treatment. At the end of the therapy, the mice were sacrificed and tumors were harvested for histologic (IHC/IF) analyses.
Immunohistochemistry (IHC) and immunofluorescence (IF) staining were carried out at the Histology Research Laboratory at the Purdue University College of Veterinary Medicine (West Lafayette, Ind.). Briefly, the tumors were fixed in 10% neutral-buffered formalin, embedded in paraffin, and cut into 3-5 μm sections.
CCL5 and CXCL10 expression in the tumors were detected through the staining using human CCL5/RANTES antibody and CXCL10 antibody respectively. The staining was evaluated based on the intensity (weak=1, moderate=2, and high=3) of chemokine immunostaining and the density (0%=0, 1-40%=1, 41-75%=2, >76%=3) of positive tumor cells. The final score of each sample was multiplied by the intensity and density.
For subcutaneous GBM43 xenografts, NK cell infiltration was investigated by IF staining performed with the following stains: Protein L (Alexa 647, far red), NKp46 (Alexa 488, green) and DAPI nuclear counterstain. CCL5 and CXCL10 expression were evaluated by IHC staining as described above. CD73 expression in the tumors was detected through the staining using human CD73 antibody.
The treatment schedule is summarized in FIG. 17, subpart A. Briefly, 3×10^6 GBM43 cells were subcutaneously (SC) implanted into the right flank of the mice (Day 0). 10 days later (Day 10), mice in the CQ group were intraperitoneally (IP) injected with CQ at 50 mg/kg for 3 weeks, once a week. One day later (Day 11), the mice in pNK and CD73.mCAR-pNK groups were treated with 5×10^6 adoptively-transferred pNK or CD73.mCAR-pNK cells intravenously (IV), once a week for 3 weeks. Starting on the day of the first injection of NK cells, all mice received 0.5 μg of IL-15 once every 3-4 days IP.

In the case of Chloroquine diphosphate salt [CQ], the mean tumor volume (NK cells 5×10^6 IV once a week for 3 weeks, CQ 50 mg/kg IP, PBS group 1475) is reported as 953.25 mm^3, the “CCL5 in tumor tissues (IHC)” value (mouse, in vivo) is reported as “significantly higher presence” and the “CXCL10 in tumor tissues (IHC)” value (mouse, in vivo) is reported as “significantly higher presence”. The mean tumor weight (necropsy day 28 post-start of treatment, PBS group 2.31) was 1.16 g and the “expression of CD73 on tumors (IHC)” value (vs other treatment groups) was “lower level”.

Source: patent US20220362299A1, “ENGINEERED NATURAL KILLER CELLS AND METHODS FOR USING THE SAME IN IMMUNOTHERAPY AND AUTOPHAGY INHIBITON TECHNIQUES” (Purdue Research Foundation, priority 2019, published 2022)
